Measured values published in patent US9296787B2, “Antitumor peptide and use thereof” (priority 2011, dated 2016).
Where two headings read alike, the source gives them in different places. Positions of bridges follow the written chain, without caps; N, C: chain ends. Residues, ends and D or L forms follow the SMILES beside them. No end group written: not given here.

How the values were obtained:
Format in all cases: cell-based
[1] = system: HeLa cells (HeLa S3); details: WST-8 absorbance after 24 hours
Method: (§1) As the tumor cells tested, a commercial mouse neuroblastoma cell line (N1E-115) was used. The cell line was cultured beforehand in a DMEM medium (i.e. Dulbecco MEM medium (DMEM medium, a Gibco product) containing 10% fetal bovine serum (FBS, a Gibco product), 2 mM of L-glutamine, 50 unit/mL of penicillin, and 50 μg/mL of streptomycin), and the number of cells per well in a 96-well plate was adjusted to approximately 5×10^3. The volume of the medium for this was 100 μL per well.
(§2) Subsequently, the stock solution of each sample peptide shown in Table 3 was added to each well to a peptide concentration in the well of 50 μM or 100 μM.
(§3) After the sample peptides were added as described above, the 96-well plate was placed in a CO2 incubator and cultured without agitation at 37° C. under 5% CO2. At the time of the peptide addition (at the start of treatment) and at 6 hours or 24 hours from the peptide addition and the start of incubation, the viability status of the cultured cells tested was analyzed with a commercial colorimetric assay kit. In particular, to each cell-culturing well, “water-soluble tetrazolium salt (WST-8)” was added as a colorimetric reagent; after two hours of incubation following the addition, the cell culture medium supplied with the colorimetric reagent was collected; and the level of inhibition of cell proliferation was evaluated by colorimetry, measuring the absorbance at a wavelength of 450 nm (values corrected with the absorbance at a wavelength of 620 nm, A450-A620) based on reduction of tetrazolium salt. Based on the absorbance at the time of the sample peptide addition (at the start of treatment), the percent decrease in the absorbance after 6 hours or 24 hours was determined as the cell proliferation inhibition rate (%).
HeLa cells (HeLa S3) were substituted for the tumor cells tested and the same test as Example 2 described above was carried out. In the present example, the peptides of Samples 1 to 7, 9, 10, 13, 16, 21 and 35 were used.

[2] = system: human alveolar basal epithelial adenocarcinoma cells, A549; details: for A450(-A620) After 24 hers: A549, peptide 50 μM, WST-8 absorbance after 24 hours; for antitumor activity (tumor cell proliferation-inhibiting activity), in words: A549, 50 μM, 24 hours, summary of Table 5
Method: as §1, §2, §3
Cells forming a […] (human alveolar basal epithelial adenocarcinoma cells, A549) were substituted for the tumor cells tested and the same test as Example 2 described above was carried out. In the present example, the peptides of Samples 1 to 13, 15 to 22, 24, 29, 35 and 40 were used.

[3] = system: mouse neuroblastoma cell line (N1E-115); details: for A450(-A620) After 24 hers: WST-8 absorbance after 24 hours; for antitumor activity (tumor cell proliferation-inhibiting activity), in words: N1E-115, 50 or 100 μM, summary of Table 3
Method: Some of the sample peptides obtained in Example 1 were tested for antitumor activity against target cultured tumor cells. Details of the assay are as described below.
as §1, §2, §3

Compound	A450(-A620) After 24 hers ([1]; HeLa S3, peptide 50 μM)	A450(-A620) After 24 hers ([1]; HeLa S3, peptide 100 μM)	A450(-A620) After 24 hers [2]	A450(-A620) After 24 hers ([3]; N1E-115, peptide 50 μM)	A450(-A620) After 24 hers ([3]; N1E-115, peptide 100 μM)	antitumor activity (tumor cell proliferation-inhibiting activity), in words [2]	antitumor activity (tumor cell proliferation-inhibiting activity), in words [3]
CC(C)C[C@@H]1NC(=O)[C@@H]2CCCN2C(=O)[C@H](Cc2ccccc2)NC(=O)[C@H](C)NC(=O)[C@H](Cc2c[nH]c3ccccc23)NC(=O)[C@@H](N)CSSC[C@@H](C(=O)O)NC(=O)[C@H](Cc2c[nH]cn2)NC(=O)[C@H](Cc2c[nH]cn2)NC1=O [Sample 5, CWAFPLHHC] (H-CWAFPLHHC-OH; disulfide 1-9; N-terminus and C-terminus assumed)	0.0955	0.0952	1.8994	–	–	–	–
QSPVNHHYHYHI [Sample 17, QSPVNHHYHYHI]	–	–	1.9428	0.6019	0.5818	–	–
CC[C@H](C)[C@@H]1NC(=O)[C@H](Cc2c[nH]cn2)NC(=O)[C@@H](N)CSSC[C@@H](C(=O)O)NC(=O)[C@H](C)NC(=O)[C@H](CCC(N)=O)NC(=O)[C@H](C)NC(=O)[C@H](Cc2c[nH]cn2)NC(=O)[C@H](CC(C)C)NC1=O [Sample 8, CHILHAQAC] (H-CHILHAQAC-OH; disulfide 1-9; N-terminus and C-terminus assumed)	–	–	1.7885	–	–	–	–
CC(C)C[C@H](NC(=O)[C@@H](NC(=O)[C@H](CCCNC(=N)N)NC(=O)[C@H](CCCCN)NC(=O)[C@H](CCCCN)NC(=O)[C@@H]1CSSC[C@H](N)C(=O)N[C@@H](CC(C)C)C(=O)N[C@@H](C)C(=O)N2CCC[C@H]2C(=O)N[C@@H](CO)C(=O)N2CCC[C@H]2C(=O)N[C@@H](CO)C(=O)N[C@@H](CCCCN)C(=O)N1)[C@@H](C)O)C(=O)N[C@@H](CCCNC(=N)N)C(=O)N[C@@H](CCCCN)C(=O)N[C@@H](CC(N)=O)C(=O)N[C@@H](CC(=O)O)C(=O)N[C@@H](CCCNC(=N)N)C(=O)N[C@@H](CCCCN)C(=O)N[C@@H](CCCCN)C(=O)N[C@@H](CCCNC(=N)N)C(=O)O [Sample 24] (H-CLAPSPSKCKKRTLRKNDRKKR-OH; disulfide 1-9; N-terminus and C-terminus assumed)	–	–	1.5820	0.3492	0.3198	high antitumor activity	high antitumor activity
SLLPHSNHAKHY [Sample 19, SLLPHSNHAKHY]	–	–	1.8271	–	–	–	–
C[C@@H]1NC(=O)[C@H](Cc2c[nH]c3ccccc23)NC(=O)[C@H](Cc2c[nH]cn2)NC(=O)CNC(=O)[C@H]([C@@H](C)O)NC(=O)[C@@H](N)CSSC[C@@H](C(=O)O)NC(=O)[C@H](CCC(=O)O)NC(=O)[C@H](CO)NC1=O [Sample 10, CTGHWASEC] (H-CTGHWASEC-OH; disulfide 1-9; N-terminus and C-terminus assumed)	0.0909	0.0915	1.7472	–	–	–	–
CSCC[C@@H]1NC(=O)[C@@H]2CCCN2C(=O)[C@H](CCCNC(=N)N)NC(=O)[C@H](CCCCN)NC(=O)[C@H](CCC(=O)O)NC(=O)[C@H](Cc2ccc(O)cc2)NC(=O)[C@H](CO)NC(=O)[C@@H](N)CSSC[C@@H](C(=O)O)NC1=O [Sample 11, CSYEKRPMC] (H-CSYEKRPMC-OH; disulfide 1-9; N-terminus and C-terminus assumed)	–	–	1.6741	–	–	high antitumor activity	–
CC[C@H](C)[C@@H]1NC(=O)[C@H](CCC(=O)O)NC(=O)[C@@H](N)CSSC[C@@H](C(=O)O)NC(=O)[C@H]([C@@H](C)O)NC(=O)[C@H](CCCNC(=N)N)NC(=O)[C@H](CCCCN)NC(=O)[C@H](C)NC(=O)[C@H](CO)NC1=O [Sample 7, CEISAKRTC] (H-CEISAKRTC-OH; disulfide 1-9; N-terminus and C-terminus assumed)	0.1508	0.1081	1.6822	–	–	–	–
TPSLPPTMFRLT [Sample 15, TPSLPPTMFRLT]	–	–	1.6022	–	–	–	–
CC(C)C[C@@H]1NC(=O)[C@@H](N)CSSC[C@@H](C(=O)O)NC(=O)[C@H](CO)NC(=O)[C@H]([C@@H](C)O)NC(=O)[C@H](Cc2ccc(O)cc2)NC(=O)[C@H](CO)NC(=O)[C@H](CCCCN)NC(=O)[C@H]([C@@H](C)O)NC1=O [Sample 12, CLTKSYTSC] (H-CLTKSYTSC-OH; disulfide 1-9; N-terminus and C-terminus assumed)	–	–	1.9165	–	–	–	–
GPHLGMNQRRRPKKRTLRKNDRKKR [Sample 43]	–	–	–	0.4784	0.4110	–	high antitumor activity
CC(C)C[C@H](NC(=O)[C@@H](NC(=O)[C@H](CCCNC(=N)N)NC(=O)[C@H](CCCCN)NC(=O)[C@H](CCCCN)NC(=O)[C@@H]1CSSC[C@H](N)C(=O)NCC(=O)N[C@@H](Cc2c[nH]cn2)C(=O)N[C@@H](CCCNC(=N)N)C(=O)N2CCC[C@H]2C(=O)N[C@@H](Cc2ccc(O)cc2)C(=O)N[C@@H](CCC(N)=O)C(=O)N[C@@H](Cc2ccc(O)cc2)C(=O)N1)[C@@H](C)O)C(=O)N[C@@H](CCCNC(=N)N)C(=O)N[C@@H](CCCCN)C(=O)N[C@@H](CC(N)=O)C(=O)N[C@@H](CC(=O)O)C(=O)N[C@@H](CCCNC(=N)N)C(=O)N[C@@H](CCCCN)C(=O)N[C@@H](CCCCN)C(=O)N[C@@H](CCCNC(=N)N)C(=O)O [Sample 26] (H-CGHRPYQYCKKRTLRKNDRKKR-OH; disulfide 1-9; N-terminus and C-terminus assumed)	–	–	–	0.4550	0.3643	–	high antitumor activity
CC(C)C[C@H](NC(=O)[C@@H](NC(=O)[C@H](CCCNC(=N)N)NC(=O)[C@H](CCCCN)NC(=O)[C@H](CCCCN)NC(=O)[C@@H]1CSSC[C@H](N)C(=O)N[C@@H](CO)C(=O)N[C@@H](CO)C(=O)N[C@@H](C)C(=O)N[C@@H]([C@@H](C)O)C(=O)NCC(=O)N[C@@H](CCCCN)C(=O)N[C@@H](CO)C(=O)N1)[C@@H](C)O)C(=O)N[C@@H](CCCNC(=N)N)C(=O)N[C@@H](CCCCN)C(=O)N[C@@H](CC(N)=O)C(=O)N[C@@H](CC(=O)O)C(=O)N[C@@H](CCCNC(=N)N)C(=O)N[C@@H](CCCCN)C(=O)N[C@@H](CCCCN)C(=O)N[C@@H](CCCNC(=N)N)C(=O)O [Sample 23] (H-CSSATGKSCKKRTLRKNDRKKR-OH; disulfide 1-9; N-terminus and C-terminus assumed)	–	–	–	0.4127	0.3841	–	high antitumor activity
GPHHYWYHLRLPKKRTLRKNDRKKR [Sample 38]	–	–	–	0.4605	0.3592	–	high antitumor activity
CC[C@H](C)[C@@H]1NC(=O)[C@H](CCC(=O)O)NC(=O)[C@@H](N)CSSC[C@@H](C(=O)N[C@@H](CCCCN)C(=O)N[C@@H](CCCCN)C(=O)N[C@@H](CCCNC(=N)N)C(=O)N[C@H](C(=O)N[C@@H](CC(C)C)C(=O)N[C@@H](CCCNC(=N)N)C(=O)N[C@@H](CCCCN)C(=O)N[C@@H](CC(N)=O)C(=O)N[C@@H](CC(=O)O)C(=O)N[C@@H](CCCNC(=N)N)C(=O)N[C@@H](CCCCN)C(=O)N[C@@H](CCCCN)C(=O)N[C@@H](CCCNC(=N)N)C(=O)O)[C@@H](C)O)NC(=O)[C@H]([C@@H](C)O)NC(=O)[C@H](CCCNC(=N)N)NC(=O)[C@H](CCCCN)NC(=O)[C@H](C)NC(=O)[C@H](CO)NC1=O [Sample 29] (H-CEISAKRTCKKRTLRKNDRKKR-OH; disulfide 1-9; N-terminus and C-terminus assumed)	–	–	1.6577	–	–	high antitumor activity	–
GAVTYSRISGQY [Sample 22, GAVTYSRISGQY]	–	–	1.9711	–	–	–	–
EFEYFHPATFRL [Sample 20, EFEYFHPATFRL]	–	–	1.8115	0.5772	0.6481	–	–
NMTTYPMHNNTV [Sample 18, NMTTYPMHNNTV]	–	–	1.6767	0.6054	0.5999	–	–
EFEYFHPATFRLKKRTLRKNDRKKR [Sample 42]	–	–	–	0.5145	0.4114	–	high antitumor activity
NMTTYPMHNNTVKKRTLRKNDRKKR [Sample 40]	–	–	1.5890	–	–	high antitumor activity	–
